Assay results published in patent US10076116B2, “N-cycloalkyl-N-(biheterocyclymethylene)-(thio)carboxamide derivatives” (BAYER CROPSCIENCE AKTIENGESELLSCHAFT, priority 2013, dated 2018).
One block for each compound: values may come before it.

Columns and labels:
Puccinia recondita = assay: In vivo preventive test on Puccinia recondita (brown rust on wheat); details: for protection: dose of 500 and 100 ppm, analogues of WO2012/059497
Description: Example C: In Vivo Preventive Test on Puccinia recondita (Brown Rust on Wheat) […]
The young plants of wheat are treated by spraying the active ingredient prepared as described above. […]
After 24 hours, the plants are contaminated by spraying the leaves with an aqueous suspension of Puccinia recondita spores. The contaminated wheat plants are incubated for 24 hours at 20° C. and at 100% relative humidity and then for 10 days at 20° C. and at 70-80% relative humidity.
The test is evaluated 11 days after the inoculation. 0% means an efficacy which corresponds to that of the control plants while an efficacy of 100% means that no disease is observed.

Alternaria brassicae = assay: In vivo preventive test on Alternaria brassicae (leaf spot on radish)
Description: Example A: In Vivo Preventive Test on Alternaria brassicae (Leaf Spot on Radish) Solvent: 5% by volume of Dimethyl sulfoxide • 10% by volume of Acetone Emulsifier: 1 μL of TWEEN® 80 (Polyoxyethylene (20) sorbitan monooleate) per mg of active ingredient The active ingredients are made soluble and homogenized in a mixture of Dimethyl sulfoxide/Acetone/TWEEN® 80 and then diluted in water to the desired concentration. The young plants of radish are treated by spraying the active ingredient prepared as described above. Control plants are treated only with an aqueous solution of Acetone/Dimethyl sulfoxide/TWEEN® 80. After 24 hours, the plants are contaminated by spraying the leaves with an aqueous suspension of Alternaria brassicae spores. The contaminated radish plants are incubated for 6 days at 20° C. and at 100% relative humidity. The test is evaluated 6 days after the inoculation. 0% means an efficacy which corresponds to that of the control plants while an efficacy of 100% means that no disease is observed.

Botrytis cinerea = assay: In vivo preventive test on Botrytis cinerea (grey mould); details: gherkin; for protection: dose of 500 and 100 ppm of active ingredient
Description: Example B: In Vivo Preventive Test Botrvtis Cinerea (Grey Mould) Solvent: 5% by volume of Dimethyl sulfoxide • 10% by volume of Acetone Emulsifier: 1 μL of TWEEN® 80 per mg of active ingredient The active ingredients are made soluble and homogenized in a mixture of Dimethyl sulfoxide/Acetone/TWEEN® 80 and then diluted in water to the desired concentration. The young plants of gherkin are treated by spraying the active ingredient prepared as described above. Control plants are treated only with an aqueous solution of Acetone/Dimethyl sulfoxide/TWEEN® 80. After 24 hours, the plants are contaminated by spraying the leaves with an aqueous suspension of Botrytis cinerea spores. The contaminated gherkin plants are incubated for 4 to 5 days at 17° C. and at 90% relative humidity. The test is evaluated 4 to 5 days after the inoculation. 0% means an efficacy which corresponds to that of the control plants while an efficacy of 100% means that no disease is observed.

Uromyces appendiculatus = assay: In vivo preventive test on Uromyces appendiculatus (bean rust)
Description: Example G: In Vivo Preventive Test on Uromvces Appendiculatus (Bean Rust) Solvent: 5% by volume of Dimethyl sulfoxide • 10% by volume of Acetone Emulsifier: 1 μL of TWEEN® 80 per mg of active ingredient The active ingredients are made soluble and homogenized in a mixture of Dimethyl sulfoxide/Acetone/TWEEN® 80 and then diluted in water to the desired concentration. The young plants of bean are treated by spraying the active ingredient prepared as described above. Control plants are treated only with an aqueous solution of Acetone/Dimethyl sulfoxide/TWEEN® 80. After 24 hours, the plants are contaminated by spraying the leaves with an aqueous suspension of Uromyces appendiculatus spores. The contaminated bean plants are incubated for 24 hours at 20° C. and at 100% relative humidity and then for 10 days at 20° C. and at 70-80% relative humidity. The test is evaluated 11 days after the inoculation. 0% means an efficacy which corresponds to that of the control plants while an efficacy of 100% means that no disease is observed.

[1] = log P by HPLC on reversed-phase column (C 18), EEC Directive 79/831 Annex V.A8; type: physicochemical; details: HPLC C 18, 40° C., 0.1% aqueous formic acid and acetonitrile, gradient 10% to 90% acetonitrile
Description: In table 1, the log P values were determined in accordance with EEC Directive 79/831 Annex V.A8 by HPLC (High Performance Liquid Chromatography) on a reversed-phase column (C 18), using the method described below: Temperature: 40° C.; Mobile phases: 0.1% aqueous formic acid and acetonitrile; linear gradient from 10% acetonitrile to 90% acetonitrile. Calibration was carried out using unbranched alkan-2-ones (comprising 3 to 16 carbon atoms) with known log P values (determination of the log P values by the retention times using linear interpolation between two successive alkanones). lambda-max-values were determined using UV-spectra from 200 nm to 400 nm and the peak values of the chromatographic signals.

[2] = dose 500 ppm, in very similar conditions, prior-art analogues
[3] = very similar conditions, formulated in DMF with 2% of alkylarylpolyglycolether
[4] = wheat, compounds of this patent
[5] = dose 100 ppm, wheat, compounds of this patent
[6] = dose 500 ppm, wheat, compounds of this patent

Structure (SMILES): Cn1nc(C(=O)N(Cc2nc(-c3ccc(Cl)cc3)cs2)C2CC2)c(C(F)(F)F)n1 [50 from WO2008/015189, N-{[4-(4-chlorophenyl)-1,3-thiazol-2-yl]methyl}-N-cyclopropyl-2-methyl-5-(trifluoromethyl)-2H-1,2,3-triazole-4-carboxamide]
Efficacy (Table C3) (Puccinia recondita; [2]): 0%

Structure (SMILES): Cn1cc(C(=O)N(Cc2nc(-c3ccc(Cl)cc3)cs2)C2CC2)c(C(F)(F)F)n1 [59 from WO2008/015189, N-{[4-(4-chlorophenyl)-1,3-thiazol-2-yl]methyl}-N-cyclopropyl-1-methyl-3-(trifluoromethyl)-1H-pyrazole-4-carboxamide]
Efficacy (Table C3) (Puccinia recondita; [2]): 0%

Structure (SMILES): Cc1nn(-c2ccccc2)nc1CN(C(=O)c1c(C(F)F)nn(C)c1F)C1CC1 [131 from WO2012/059497, N-cyclopropyl-3-(difluoromethyl)-5-fluoro-1-methyl-N-[(5-methyl-2-phenyl-2H-1,2,3-triazol-4-yl)methyl]-1H-pyrazole-4-carboxamide]
Efficacy at 100 ppm (Table C1) (Puccinia recondita; [3]): 0% | Efficacy at 500 ppm (Table C1) (Puccinia recondita; [3]): 11% | protection (Puccinia recondita; in very similar conditions): good (at least 80%) to no protection

Structure (SMILES): Cc1sc(-c2ccccc2)cc1C(C)N(C(=O)c1c(C(F)F)nn(C)c1F)C1CC1 (stereo not shown) [147 from WO2012/059497, N-cyclopropyl-3-(difluoromethyl)-5-fluoro-1-methyl-N-[1-(2-methyl-5-phenyl-3-thienyl)ethyl]-1H-pyrazole-4-carboxamide]
Efficacy at 100 ppm (Table C1) (Puccinia recondita; [3]): 0% | Efficacy at 500 ppm (Table C1) (Puccinia recondita; [3]): 30% | protection (Puccinia recondita; in very similar conditions): good (at least 80%) to no protection

Structure (SMILES): Cn1nc(C(F)F)c(C(=O)N(Cc2cc(-c3ccc(Cl)cc3)no2)C2CC2)c1F [153 from WO2012/059497, N-{[3-(4-chlorophenyl)-1,2-oxazol-5-yl]methyl}-N-cyclopropyl-3-(difluoromethyl)-5-fluoro-1-methyl-1H-pyrazole-4-carboxamide]
Efficacy at 100 ppm (Table C1) (Puccinia recondita; [3]): 10% | Efficacy at 500 ppm (Table C1) (Puccinia recondita; [3]): 80% | protection (Puccinia recondita; in very similar conditions): good (at least 80%) to no protection

Structure (SMILES): Cn1nc(C(F)F)c(C(=O)N(Cc2cc3ccccc3n2-c2ccccc2)C2CC2)c1F [155 from WO2012/059497, N-cyclopropyl-3-(difluoromethyl)-5-fluoro-1-methyl-N-[(1-phenyl-1H-indol-2-yl)methyl]-1H-pyrazole-4-carboxamide]
Efficacy at 100 ppm (Table C1) (Puccinia recondita; [3]): 0% | Efficacy at 500 ppm (Table C1) (Puccinia recondita; [3]): 20% | protection (Puccinia recondita; in very similar conditions): good (at least 80%) to no protection

Structure (SMILES): Cn1nc(C(F)F)c(C(=O)N(Cc2cc(-c3cc(F)c(F)c(F)c3)no2)C2CC2)c1F [165 from WO2012/059497, N-cyclopropyl-3-(difluoromethyl)-5-fluoro-1-methyl-N-{[3-(3,4,5-trifluorophenyl)-1,2-oxazol-5-yl]methyl}-1H-pyrazole-4-carboxamide]
Efficacy at 100 ppm (Table C1) (Puccinia recondita; [3]): 0% | Efficacy at 500 ppm (Table C1) (Puccinia recondita; [3]): 10% | protection (Puccinia recondita; in very similar conditions): good (at least 80%) to no protection

Structure (SMILES): Cc1nc(-c2ccc(Cl)cc2)sc1CN(C(=O)c1c(C(F)F)nn(C)c1F)C1CC1 [167 from WO2012/059497, N-{[2-(4-chlorophenyl)-4-methyl-1,3-thiazol-5-yl]methyl}-N-cyclopropyl-3-(difluoromethyl)-5-fluoro-1-methyl-1H-pyrazole-4-carboxamide]
Efficacy at 100 ppm (Table C1) (Puccinia recondita; [3]): 0% | Efficacy at 500 ppm (Table C1) (Puccinia recondita; [3]): 0% | protection (Puccinia recondita; in very similar conditions): good (at least 80%) to no protection

Structure (SMILES): Cn1nc(C(F)F)c(C(=O)N(Cc2nn(-c3ccccc3)cc2-c2cccnc2)C2CC2)c1F [CMP1, N-cyclopropyl-3-(difluoromethyl)-5-fluoro-1-methyl-N-{[1-phenyl-4-(pyridin-3-yl)-1H-pyrazol-3-yl]methyl}-1H-pyrazole-4-carboxamide, reference compound]
efficacy (Alternaria brassicae; 500 ppm of active ingredient, radish plants sprayed 24 hours before inoculation, evaluated 6 days after inoculation): no protection | Efficacy (Table A1) (Alternaria brassicae; dose 500 ppm, radish, 6 days after inoculation): 0%

Structure (SMILES): Cn1nc(C(F)F)c(C(=O)N(Cc2ncc(C(F)(F)F)cc2-c2cccnc2)C2CC2)c1F [CMP2, N-cyclopropyl-3-(difluoromethyl)-5-fluoro-1-methyl-N-{[5-(trifluoromethyl)-3,3′-bipyridin-2-yl]methyl}-1H-pyrazole-4-carboxamide, reference compound]
Efficacy (Table B1) (Botrytis cinerea; dose 100 ppm): 0% | Efficacy (Table B1) (Botrytis cinerea; dose 500 ppm): 0% | protection (Botrytis cinerea): no protection | Efficacy (Table G1) (Uromyces appendiculatus; dose 100 ppm): 0% | Efficacy (Table G1) (Uromyces appendiculatus; dose 500 ppm): 0%

Structure (SMILES): Cn1nc(C(F)F)c(C(=O)N(Cc2ncc(C(F)(F)F)cc2-c2ccncc2)C2CC2)c1F [CMP3, N-cyclopropyl-3-(difluoromethyl)-5-fluoro-1-methyl-N-{[5-(trifluoromethyl)-3,4′-bipyridin-2-yl]methyl}-1H-pyrazole-4-carboxamide, reference compound]
Efficacy (Table B1) (Botrytis cinerea; dose 100 ppm): 0% | Efficacy (Table B1) (Botrytis cinerea; dose 500 ppm): 0% | protection (Botrytis cinerea): no protection | Efficacy (Table G1) (Uromyces appendiculatus; dose 100 ppm): 0% | Efficacy (Table G1) (Uromyces appendiculatus; dose 500 ppm): 17%

logP [1]: 2.88
Structure (SMILES): Cc1nc(C)c(-c2sccc2CN(C(=O)c2c(C(F)F)nn(C)c2F)C2CC2)s1 [I.11]
efficacy (Puccinia recondita; 500 ppm of active ingredient, wheat plants, evaluated 11 days after inoculation): at least 60% | Efficacy (Table C3) (Puccinia recondita; dose 500 ppm, wheat, compound of this patent): 69%

logP [1]: 3.89
Structure (SMILES): Cn1nc(C(F)F)c(C(=O)N(Cc2ncc(C(F)(F)F)cc2-c2cccs2)C2CC2)c1F [I.19]
Efficacy (Table B1) (Botrytis cinerea; dose 100 ppm): 100% | Efficacy (Table B1) (Botrytis cinerea; dose 500 ppm): 95% | Efficacy (Table G1) (Uromyces appendiculatus; dose 100 ppm): 100% | Efficacy (Table G1) (Uromyces appendiculatus; dose 500 ppm): 100%

logP [1]: 4.35
Structure (SMILES): Cc1ccc(-c2cc(C(F)(F)F)cnc2CN(C(=O)c2c(C(F)F)nn(C)c2F)C2CC2)s1 [I.21]
Efficacy at 100 ppm (Table C1) (Puccinia recondita; [4]): 89% | Efficacy at 500 ppm (Table C1) (Puccinia recondita; [4]): 98%

logP [1]: 3.89
Structure (SMILES): COc1ccsc1-c1cc(C(F)(F)F)cnc1CN(C(=O)c1c(C(F)F)nn(C)c1F)C1CC1 [I.23]
Efficacy at 100 ppm (Table C1) (Puccinia recondita; [4]): 98% | Efficacy at 500 ppm (Table C1) (Puccinia recondita; [4]): 100%

logP [1]: 3.78
Structure (SMILES): Cn1nc(C(F)F)c(C(=O)N(Cc2ncc(C(F)(F)F)cc2-c2ccnc3cc(Cl)ccc23)C2CC2)c1F [I.29]
Efficacy (Table B1) (Botrytis cinerea; dose 100 ppm): 39% | Efficacy (Table B1) (Botrytis cinerea; dose 500 ppm): 83% | Efficacy (Table G1) (Uromyces appendiculatus; dose 100 ppm): 67% | Efficacy (Table G1) (Uromyces appendiculatus; dose 500 ppm): 100%

logP [1]: 4.16
Structure (SMILES): Cn1nc(C(F)F)c(C(=O)N(Cc2ncc(C(F)(F)F)cc2-c2coc3ccccc23)C2CC2)c1F [I.31]
Efficacy (Table B1) (Botrytis cinerea; dose 100 ppm): 100% | Efficacy (Table B1) (Botrytis cinerea; dose 500 ppm): 100% | Efficacy at 100 ppm (Table C1) (Puccinia recondita; [4]): 88% | Efficacy at 500 ppm (Table C1) (Puccinia recondita; [4]): 94% | Efficacy (Table G1) (Uromyces appendiculatus; dose 100 ppm): 78% | Efficacy (Table G1) (Uromyces appendiculatus; dose 500 ppm): 97%

logP [1]: 4.67
Structure (SMILES): Cc1cscc1-c1cc(C(F)(F)F)cnc1CN(C(=S)c1c(C(F)F)nn(C)c1F)C1CC1 [I.37]
Efficacy (Table C2) (Puccinia recondita; [5]): 86% | Efficacy (Table C2) (Puccinia recondita; [6]): 93%

logP [1]: 3.42
Structure (SMILES): Cn1cc(C(=O)N(Cc2ncc(C(F)(F)F)cc2-c2ccsc2)C2CC2)c(C(F)F)n1 [I.41]
Efficacy (Table C2) (Puccinia recondita; [5]): 79% | Efficacy (Table C2) (Puccinia recondita; [6]): 93%
